Key:
Experiment in all cases: Fixed Ratio Drug Combination Assay, cell proliferation (CellTiter Glo)
Assay type in all cases: cell-based, human
COLO205 = details: for Ymin/T0: 72 hours; for IC50: Homo sapiens, COLO 205, 72 hours, read-out: gIC50
Method: (§1) Combination drug tests with Compounds A and B were conducted using a panel of cell lines from human colon cancers (n=25) (Table 1). Cell lines were purchased commercially [from ATCC (Manassas, Va., USA) or DSMZ (Braunschweig, Germany)] and grown in RPMI-1640 supplemented with 2 mM glutamine, 1 mM sodium pyruvate and 10% fetal bovine serum and maintained at 37° C. and 5% CO2 in a humid incubator.
(§2) The dilution design of the Fixed Ratio Drug Combination Assay can be seen in FIG. 1. First, the test compounds were prepared as 10 mM stocks in 100% dimethyl sulfoxide (DMSO). Further dilutions of the compounds were made with DMSO. The first test compound (designated as Compound A) is diluted horizontally in a 96 well microtiter plate in rows B-E using a 3-fold dilution series for 10 dilution points. A second test compound (designated as Compound B) is diluted horizontally in a separate 96 well microtiter plate in rows D-G using a 3-fold dilution series for 10 dilution points. The two compounds are combined using equal volumes from each drug plate into cell culture media. […] Compound A is individually titrated in rows B and C, while only Compound B is dosed in rows F and G of the plate. An additional 1:10 dilution of the drugs is performed in cell culture media prior to addition to the cells. Drug addition to the cells results in a further 1:2 dilution of drugs. The total dilution of the drug plate to the cells is […]. The final dosing concentration range for Compound B was 0.1-1000.0 nM and was 0.5-10000.0 nM for Compound A. The positive control consists of culture media with DMSO at 0.1% and cells and no drug. The negative control consists of culture media with DMSO at 0.1%. solution.
(§3) Assays were performed in 96 well microtiter plates with appropriate seeding densities estimated from previous studies of each cell line. Following dosing, the cell lines are incubated at 37° C., 5% CO2 in humid air for 72 hours. Cell proliferation was measured using the CellTiter Glo (Promega Corporation, Madison, Wis., USA) reagent according to the manufacturer's protocol. The plates are treated with CellTiter Glo solution and are analyzed for RLU (relative light units) using a Molecular Devices SpectraMax M5 (Sunnyvale, Calif., USA) plate reader.
(§4) Results are expressed as a percentage of the number of cells present at the time of compound addition value (T0) and plotted against compound(s) concentration. The percent intensity values were used in model 205 of the IDBS XLfit plug-in for Microsoft Excel to calculate gIC50 values using a 4 parameter logistical fit. Background correction is made by subtraction of values from wells containing no cells. The midpoint of the growth window (the gIC50) falls half way between the number of cells at the time of compound addition and the growth of control cells treated with DMSO at 72 hrs. The number of cells at time zero is divided from the intensity value at the bottom of the response curve (Ymin) to generate a measure for cell death (Ymin/T0). A value below 1 for Ymin/T0 indicates stronger potency with the treatment when compared to higher values. For duplicate assays, all response metrics are averaged for presentation.
(§5) Three independent metrics were used to analyze the combinatorial effects on growth inhibition of Compound B and Compound A. • 1. Excess over Highest Single Agent (EOHSA)—One standard criterion for measuring drug combinatorial effects is analyzing the effects on cell growth inhibition in absolute terms. In this case, the combination of drugs is compared to the more responsive of the two individual treatments (single agent). For each combination experiment, the percent effect relative to the highest single agent for each dose along the curve is generated. This measure of “Excess of Highest Single Agent (EOHSA)” is one of the criteria used for evaluating synergy of drug combinations. […]

COLO320DM = details: 72 hours; for IC50: Homo sapiens, COLO 320DM, read-out: gIC50
Method: as §1, §2, §3, §4, §5

HCT116 = details: for Ymin/T0: 72 hours; for IC50: Homo sapiens, HCT-116, 72 hours, read-out: gIC50
Method: as §1, §2, §3, §4, §5

HCT15 = details: for Ymin/T0: 72 hours; for IC50: Homo sapiens, HCT-15, 72 hours, read-out: gIC50
Method: as §1, §2, §3, §4, §5

HCT8 = details: for Ymin/T0: 72 hours; for IC50: Homo sapiens, HCT-8, 72 hours, read-out: gIC50
Method: as §1, §2, §3, §4, §5

HT29 = details: for Ymin/T0: 72 hours; for IC50: Homo sapiens, HT-29, 72 hours, read-out: gIC50
Method: as §1, §2, §3, §4, §5

KM12 = details: 72 hours; for IC50: Homo sapiens, read-out: gIC50
Method: as §1, §2, §3, §4, §5

LS174T = details: 72 hours; for IC50: Homo sapiens, read-out: gIC50
Method: as §1, §2, §3, §4, §5

NCIH508 = details: for Ymin/T0: 72 hours; for IC50: Homo sapiens, NCI-H508, 72 hours, read-out: gIC50
Method: as §1, §2, §3, §4, §5

NCIH630 = details: for Ymin/T0: 72 hours; for IC50: Homo sapiens, NCI-H630, 72 hours, read-out: gIC50
Method: as §1, §2, §3, §4, §5

NCIH716 = details: for Ymin/T0: 72 hours; for IC50: Homo sapiens, NCI-H716, 72 hours, read-out: gIC50
Method: as §1, §2, §3, §4, §5

NCIH747 = details: for Ymin/T0: 72 hours; for IC50: Homo sapiens, NCI-H747, 72 hours, read-out: gIC50
Method: as §1, §2, §3, §4, §5

RKO = details: 72 hours; for IC50: Homo sapiens, read-out: gIC50
Method: as §1, §2, §3, §4, §5

SW1417 = details: 72 hours; for IC50: Homo sapiens, read-out: gIC50
Method: as §1, §2, §3, §4, §5

SW1463 = details: 72 hours; for IC50: Homo sapiens, read-out: gIC50
Method: as §1, §2, §3, §4, §5

SW403 = details: for Ymin/T0: 72 hours; for IC50: Homo sapiens, SW-403, 72 hours, read-out: gIC50
Method: as §1, §2, §3, §4, §5

SW480 = details: 72 hours; for IC50: Homo sapiens, read-out: gIC50
Method: as §1, §2, §3, §4, §5

SW48 = details: 72 hours; for IC50: Homo sapiens, read-out: gIC50
Method: as §1, §2, §3, §4, §5

SW837 = details: 72 hours; for IC50: Homo sapiens, read-out: gIC50
Method: as §1, §2, §3, §4, §5

SW948 = details: 72 hours; for IC50: Homo sapiens, read-out: gIC50
Method: as §1, §2, §3, §4, §5

T84 = details: 72 hours; for IC50: Homo sapiens, read-out: gIC50
Method: as §1, §2, §3, §4, §5

For `CC(C)(C)c1nc(-c2cccc(NS(=O)(=O)c3c(F)cccc3F)c2F)c(-c2ccnc(N)n2)s1` [Compound A, N-{3-[5-(2-amino-4-pyrimidinyl)-2-(1,1-dimethylethyl)-1,3-thiazol-4-yl]-2-fluorophenyl}-2,6-difluorobenzenesulfonamide], the Ymin/T0 (COLO205) was 1.2, the IC50 (COLO205) was 7.3 nM and the Ymin/T0 (COLO320DM) was 4.9. For the same compound, the IC50 (COLO320DM) was over 10000 nM, the Ymin/T0 (HCT116) was 9.2 and the IC50 (HCT116) was over 10000 nM. The Ymin/T0 (HCT15) was 6.1, the IC50 (HCT15) was over 10000 nM and the Ymin/T0 (HCT8) was 9.2. The IC50 (HCT8) was over 10000 nM, the Ymin/T0 (HT29) was 4.0 and the IC50 (HT29) was 17.2 nM. The Ymin/T0 (KM12) was 8.8, the IC50 (KM12) was over 10000 nM and the Ymin/T0 (LS174T) was 7.0. It also gave an IC50 (LS174T) of over 10000 nM, a Ymin/T0 (NCIH508) of 2.1 and an IC50 (NCIH508) of 366 nM. The Ymin/T0 (NCIH630) was 1.9, the IC50 (NCIH630) was 5000 nM and the Ymin/T0 (NCIH716) was 1.3. It also gave an IC50 (NCIH716) of over 10000 nM, a Ymin/T0 (NCIH747) of 1.3 and an IC50 (NCIH747) of over 10000 nM. It also gave a Ymin/T0 (RKO) of 6.7, an IC50 (RKO) of 8950 nM and a Ymin/T0 (SW1417) of 1.1. The IC50 (SW1417) was 246 nM, the Ymin/T0 (SW1463) was 1.9 and the IC50 (SW1463) was over 10000 nM. For the same compound, the Ymin/T0 (SW403) was 2.7, the IC50 (SW403) was over 10000 nM and the Ymin/T0 (SW480) was 2.9. It also gave an IC50 (SW480) of over 10000 nM, a Ymin/T0 (SW48) of 4.7 and an IC50 (SW48) of over 10000 nM. The Ymin/T0 (SW837) was 2.3, the IC50 (SW837) was over 10000 nM and the Ymin/T0 (SW948) was 1.5. It also gave an IC50 (SW948) of over 10000 nM, a Ymin/T0 (T84) of 2.0 and an IC50 (T84) of over 10000 nM.

`COc1ncc(-c2ccc3nccc(-c4ccnnc4)c3c2)cc1NS(=O)(=O)c1ccc(F)cc1F` [Compound B, 2,4-difluoro-N-{2-(methyloxy)-5-[4-(4-pyridazinyl)-6-quinolinyl]-3-pyridinyl}benzenesulfonamide] gave a Ymin/T0 (COLO205) of 1.4, an IC50 (COLO205) of 12 nM and a Ymin/T0 (COLO320DM) of 1.5. The IC50 (COLO320DM) was 4.7 nM, the Ymin/T0 (HCT116) was 4.1 and the IC50 (HCT116) was 34.2 nM. It also gave a Ymin/T0 (HCT15) of 2.4, an IC50 (HCT15) of 7.2 nM and a Ymin/T0 (HCT8) of 1.6. For the same compound, the IC50 (HCT8) was 8.4 nM, the Ymin/T0 (HT29) was 2.0 and the IC50 (HT29) was 7.4 nM. It also gave a Ymin/T0 (KM12) of 1.4, an IC50 (KM12) of 22.1 nM and a Ymin/T0 (LS174T) of 0.8. It also gave an IC50 (LS174T) of 34.1 nM, a Ymin/T0 (NCIH508) of 0.5 and an IC50 (NCIH508) of 1.2 nM. For the same compound, the Ymin/T0 (NCIH630) was 0.9, the IC50 (NCIH630) was 18.3 nM and the Ymin/T0 (NCIH716) was 0.7. The IC50 (NCIH716) was 1.1 nM, the Ymin/T0 (NCIH747) was 0.5 and the IC50 (NCIH747) was 2.7 nM. For the same compound, the Ymin/T0 (RKO) was 3.0, the IC50 (RKO) was 10.9 nM and the Ymin/T0 (SW1417) was 1.3. The IC50 (SW1417) was 1.4 nM, the Ymin/T0 (SW1463) was 0.9 and the IC50 (SW1463) was 8.2 nM. It also gave a Ymin/T0 (SW403) of 0.5, an IC50 (SW403) of 1.5 nM and a Ymin/T0 (SW480) of 1.1. For the same compound, the IC50 (SW480) was 5.4 nM, the Ymin/T0 (SW48) was 0.4 and the IC50 (SW48) was 2.6 nM. For the same compound, the Ymin/T0 (SW837) was 0.8, the IC50 (SW837) was 6.4 nM and the Ymin/T0 (SW948) was 0.4. It also gave an IC50 (SW948) of 0.3 nM, a Ymin/T0 (T84) of 0.7 and an IC50 (T84) of 6 nM.

— patent US20120202822A1, “COMBINATION” (priority 2009, published 2012)
